Reference: patent US20120302609A1, “Pyrazolines for the Modulation of PKM2” (Dynamix Pharmaceuticals LTD., priority 2011, published 2012)

Experiments:
[1] = test system: H1299 (Non-small cell lung carcinoma cell line); test: Cell proliferation index assay, Assay Protocol II (Fluofarma, flow cytometry); assay type: cell-based; conditions: Homo sapiens, NCI-H1299
Protocol: In a second assay to determine the inhibition of cell proliferation by a test compound, cell proliferation of the cell line of interest was measured by a cell proliferation index assay using Fluofarma (www.fluofarma.com) based technology. This assay is based on the dilution rate of a fluorescent membrane marker, which is a direct function of the number of cell divisions. Briefly, the assay is performed by loading the cells with a non-toxic fluorescent phospholipid analog before the seeding. […] Flow cytometry analysis of the fluorescent probe is performed after the loading of the cells both prior to, as well as after treatment with various concentrations of the test compound. The dilution rate of the fluorescent probe at the single cell level is directly correlated to the number of cell divisions.

[2] = biological target: T1, PKM2, human recombinant (Homo sapiens, UniProt P14618); test: PKM2 enzymatic activity assay (Kinase-Glo Plus luminescence); assay type: biochemical; conditions: for AC50: 0.1 nM PKM2, 0.1 mM ADP, 0.5 mM PEP, 1 hour, room temperature, read-out: AC50 group; for Emax: 1 h, maximum percent activity, luminescence without compound = 0% activity, read-out: Max activity Group;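 on Max activity Group: percent increase over no-compound signal after subtracting the no-PKM2 background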
T1 construct: purchased BPS 50295
Protocol: PKM2 performs the following enzymatic reaction, where the PKM2 substrates, PEP (phosphoenolpyruvate) and ADP, are converted to pyruvate and ATP as follows:
All of the enzymatic reactions were conducted in duplicates at room temperature for 1 hour in a 50 μL mixture containing: • PKM2 assay buffer (50 mM Imidazole, pH 7.2; 7 mM MgCl2; 50 mM KCl; 0.01% Tween; • and 0.05% BSA), 0.1 mM ADP, 0.5 mM PEP, 0.1 nM PKM2 enzyme (PKM2, human recombinant (BPS catalog number 50295)) and the indicated test compound. Fructose 1,6 biphosphat e, (FBP (Sigma)) was used as a positive control for activation at concentration of 0.5 mM. After enzymatic reactions, 50 μL of Kinase-Glo® Plus reagent (Promega kit) was added to each well and luminescence was measured using a BioTek Synergy™ 2 microplate reader.
PKM2 activity assays were performed in duplicates at each concentration. The luminescence data were analyzed using the computer software, GraphPad PRISM®. In the absence of the compound, the luminescence was defined as 0% activity. The percent activity in the presence of each compound was calculated according to the following equation:
% Activity=[(L−Lb)/(Lt−Lb)−1]×100%
where L=the luminescence in the presence of the test compound, Lb=the luminescence in the absence of PKM2, and Lt=the luminescence intensity in the absence of the test compound. The % activity values versus a series of compound concentrations were plotted using non-linear regression analysis of Sigmoidal dose-response curve generated with the equation Y=B+(T−B)/1+10^((LogEC50-X)×Hill Slope), where Y=percent activity, B=minimum percent activity, T=maximum percent activity, X=logarithm of compound and Hill Slope=slope factor or Hill coefficient. The AC50 values, shown in Table 2 were determined for the indicated test compounds as the concentration causing a half-maximal percent activity.

[3] = test system: 786-O (kidney); test: Cell proliferation assay (CellTiter-Glo Luminescent); assay type: cell-based; conditions: Homo sapiens, 786-0, 1 mM glucose, 96 hr
[4] = test system: H1299 (lung); test: as above; assay type: cell-based, human; conditions: Homo sapiens, NCI-H1299, 1 mM glucose, 96 hr
Protocol: 1. Cells were grown according to the ATCC conditions. 2. Cell feeding (passaging) was timed such that the cells were in exponential growth phase at the time of the assay.
3. On day 1, H1299 cells were counted. Cell numbers were adjusted to the desired cell concentration in Media 1: RPMI 1640 Invitrogen 11879020 (that contained no glucose or pyruvate) with 10% FBS, and 1 mM D-Glucose (4 μl of 2.5 M D-glucose G8769 was added in preparing 10 ml RPMI media with 1 mM glucose). A 200 μl of H1299 cell suspension was added to appropriate wells in the 96-well plates, and incubated at 37° C. in the CO2 cell incubator under normal growing conditions for overnight. 4. On day 2, a 100 mM stock concentration of test compounds in 100% DMSO was prepared and serially diluted with 100% DMSO to 33.33 mM, 11.11 mM, and 3.7 mM. A 1:1000 dilution was made to each concentration in media 1 (yielding 0.1% final DMSO concentration). The media was aspirated completely from the cell plate. Each 100 μl of the following solutions (100 μM, 33.33 μM, 11.11 μM, and 3.7 μM) was added to the cells. DMSO in a final concentration of 0.1%, and media without DMSO, were added to the cells and used as a negative control. Empty wells around the experimental wells were filled with PBS. The plate was sealed with parafilm to reduce evaporation. 5. The plate was incubated under normal conditions (5% CO2, and 95% air), for 96 hours at 37° C. 6. On day 6 (after 96 hr incubation), the plate was equilibrated to room temperature for approximately 30 minutes. A 100 μl of CellTiter-Glo Reagent was added in each well of the plate. Contents were mixed for 2 minutes on an orbital shaker to induce cell lysis. The plate was incubated at room temperature for 10 minutes to stabilize luminescent signal. Luminescence was recorded with Flexstation 3.
Unless noted otherwise, proliferation of control or compound treated H1299 cells was measured using CellTiter-Glo Luminescent assay following 96 hr incubation of the cells with and without test compounds. The AC50 values, shown in Table 3, were coded according to follows: A: <3 μM; B: 3-10 μM; C: 10-20 μM; or D: >20 μM.

[5] = test system: H1299 Human Non-Small Cell Lung Carcinoma; test: H1299 human non-small cell lung carcinoma nude mouse xenograft model, tumor growth delay; assay type: in vivo, mice; conditions: for MTV (n) Day 28: median tumor volume of animals not at endpoint (n in brackets)
Protocol: (§1) The animals were fed ad libitum water (reverse osmosis, 1 ppm Cl) and NIH 31 Modified and Irradiated Lab Diet® consisting of 18.0% crude protein, 5.0% crude fat, and 5.0% crude fiber. The mice were housed on irradiated Enrich-o′ Cobs™ Laboratory Animal Bedding in static microisolators on a 12-hour light cycle at 20-22° C. (68-72° F.) and 40-60% humidity.
H1299 (NCI-H1299) NSCLC cells were obtained from the American Type Culture Collection, which reports the cell line to have originated from a lymph node metastasis and to lack p53 expression. The cell line was maintained as exponentially growing cultures in RPMI-1640 medium supplemented with 10% fetal bovine serum, 2 mM glutamine, 100 units/mL penicillin G sodium, 100 μg/mL streptomycin sulfate, 25 μg/mL gentamicin, 10 mM HEPES, and 0.075% sodium bicarbonate. The tumor cells were cultured in tissue culture flasks in a humidified incubator at 37° C., in an atmosphere of 5% CO2 and 95% air.
H1299 tumor cells were harvested during log phase growth and suspended in cold PBS. Each nude mouse was inoculated subcutaneously in the right flank with 0.2 mL of the cell suspension (1×10^7 cells). The tumors were periodically calipered in two dimensions to monitor size as the mean volume approached the desired 90-130 mm^3 range. Tumor size was calculated by the following formula:
where w=width and l=length, in mm, of the tumor. Tumor weight may be estimated with the assumption that 1 mg is equivalent to 1 mm^3 of tumor volume.
Compound 13A (MW 467.51, code-named XT26) was provided as a powder stored at −20° C., and protected from light during storage and handling. Dosing suspensions, in 0.5% carboxymethyl cellulose and 1% Tween® 80 in deionized water (Vehicle), were prepared fresh for each dose, and kept at 4° C. post formulation. Gemcitabine (Gemzar®, Lilly, 38 mg/mL, Lot # A866884A) was stored at room temperature. A fresh 12 mg/mL gemcitabine dosing solution was prepared on each treatment day by diluting an aliquot of the stock solution with saline.
(§2) Dosing began on D1 in four groups of mice (n=12/group in Groups 1, 3, and 4; n=6 in Group 2). XT26 and its vehicle were administered intraperitoneally (i.p.) twice daily for 28 days (b.i.d.×28), starting with the p.m. dose on D1 and ending with the a.m. dose on D29. Gemcitabine was administered i.p. once daily at three-day intervals for four doses (q3d×4). In all groups, the dosing volume of 10 ml/kg (0.2 ml/20 g mouse) was scaled to the weight of each individual animal, as measured twice weekly.
Group 1 mice received the XT26 vehicle b.i.d.×28, and served as the controls for the study. Group 2 received gemcitabine at 120 mg/kg. Group 3 was to receive XT26 at 100 mg/kg b.i.d.×28; on D21, four mice (Animals 1, 3, 4, and 5) erroneously received 200 mg/kg XT26 for their a.m. dose. […] Group 4 dosing at 200 mg/kg resumed on D17 on a qd (once daily)×13 dosing schedule. Because of a scheduling error, the D19 dose for Group 4 mice was omitted; qd dosing occurred on Days 17, 18, and 20-28.
Tumors were calipered twice weekly for the duration of the study, and each animal was euthanized when its neoplasm reached the predetermined endpoint volume (1200 mm^3) or at the end of the study, whichever came first. Animals that exited the study for tumor growth were documented as euthanized for tumor progression (TP), with the date of euthanasia. The time to endpoint (TTE) for each mouse was calculated by the following equation: […]
where TTE is expressed in days, endpoint volume is expressed in mm^3, b is the intercept, and m is the slope of the line obtained by linear regression of a log-transformed tumor growth data set.

[6] = H1299 nude mouse xenograft study, toxicity (body weight, deaths, organ weights); assay type: in vivo, mice; conditions: Gemcitabine 120 mg/kg ip q3d × 4
Protocol: as §1, §2
Group 1 mice received the XT26 vehicle b.i.d.×28, and served as the controls for the study. Group 2 received gemcitabine at 120 mg/kg. Group 3 was to receive XT26 at 100 mg/kg b.i.d.×28; on D21, four mice (Animals 1, 3, 4, and 5) erroneously received 200 mg/kg XT26 for their a.m. dose. Group 4 was to receive XT26 at 200 mg/kg b.i.d.×28, but dosing stopped on D9 (b.i.d.×8) because of toxicity. Group 4 dosing at 200 mg/kg resumed on D17 on a qd (once daily)×13 dosing schedule. Because of a scheduling error, the D19 dose for Group 4 mice was omitted; qd dosing occurred on Days 17, 18, and 20-28.
Animals were weighed daily on D1-5, then twice weekly until the completion of the study. The mice were observed frequently for overt signs of any adverse, treatment-related side effects.
On D10, both kidneys and the liver were harvested from each euthanized Group 4 animal. Each organ was weighed separately, fixed overnight in 10% neutral buffered formalin, and transferred to 70% ethanol.

[7] = Gemcitabine 120 mg/kg ip q3d × 4
[8] = Group 1 vs 2: Gemcitabine ip q3d × 4, 120 mg/kg

T1 sequence (P14618 whole entry): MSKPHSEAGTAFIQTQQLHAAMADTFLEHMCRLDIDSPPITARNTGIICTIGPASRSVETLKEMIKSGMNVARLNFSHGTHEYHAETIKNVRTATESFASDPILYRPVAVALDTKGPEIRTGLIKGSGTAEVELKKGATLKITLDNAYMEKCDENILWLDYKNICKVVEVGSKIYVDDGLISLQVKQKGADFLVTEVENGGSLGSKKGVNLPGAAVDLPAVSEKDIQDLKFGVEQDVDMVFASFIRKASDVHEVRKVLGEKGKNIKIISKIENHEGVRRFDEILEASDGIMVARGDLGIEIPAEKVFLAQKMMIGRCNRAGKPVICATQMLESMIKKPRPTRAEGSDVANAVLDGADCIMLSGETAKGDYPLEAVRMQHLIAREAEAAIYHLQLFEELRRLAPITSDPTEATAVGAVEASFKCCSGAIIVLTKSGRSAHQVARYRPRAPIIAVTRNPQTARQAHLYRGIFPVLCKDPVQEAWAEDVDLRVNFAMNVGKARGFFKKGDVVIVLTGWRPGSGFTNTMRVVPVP

SMILES	IC50 [1]	AC50 [2]	Emax [2]	AC50 [3]	AC50 [4]	also measured
COc1ccc(C2CC(c3ccc(NS(=O)(=O)c4c(F)cccc4F)cc3)=NN2C(C)=O)cc1 (centres unmarked) [Compound 61A, N-(4-(1-acetyl-5-(4-methoxyphenyl)-4,5-dihydro-1H-pyrazol-3-yl)phenyl)-2,6-difluorobenzenesulfonamide]	< 40 µM					
CC(=O)N1N=C(c2ccc(NS(=O)(=O)c3ccc(F)cc3)cc2)CC1c1ccc(F)cc1 (single isomer, unassigned) [Compound 36A]		≤ 1 µM		3 to 10 µM	> 20 µM	
Nc1ccn([C@@H]2O[C@H](CO)[C@@H](O)C2(F)F)c(=O)n1 [Gemcitabine, gemcitabine, reference compound]						% TGD [5, 7]: 50%; Regressions CR [5, 7]: 0; Regressions PR [5, 7]: 0; Regressions TFS [5, 7]: 0; Median TTE ([5]; Gemcitabine 120 mg/kg ip q3d × 4, endpoint 1200 mm^3, 28-day study): 28.0 days; MTV (n) Day 28 [5, 7]: 600 (5) mm^3; MTV (n) Day 28 ([5]; Gemcitabine 120 mg/kg ip q3d × 4, listed as gemcitabine): 600 mm^3; T − C ([5]; Gemcitabine 120 mg/kg ip q3d × 4, vs Group 1 vehicle): 9.3 days; Median survival ([5]; Gemcitabine ip q3d × 4, 120 mg/kg (Column B = treated group)): Undefined; Are the survival curves sig different? [5, 8]: Yes; Hazard Ratio [5, 8]: 11.48; response of tumor model to therapy ([5]; standard 120 mg/kg gemcitabine therapy): responded moderately well; Deaths NTR ([6]; non-treatment-related deaths): 0; Deaths TR ([6]; treatment-related deaths): 0

Further lines, with some results ahead:

IC50 [1]	AC50 [2]	Emax [2]	SMILES	AC50 [3]	AC50 [4]	also measured
< 40 µM	≤ 1 µM	130 to 200%	COc1ccc(C2CC(c3ccc(NS(=O)(=O)c4ccc(F)cc4)cc3)=NN2C(C)=O)cc1 (racemic) [Compound 6A, N-(4-(1-acetyl-5-(4-methoxyphenyl)-4,5-dihydro-1H-pyrazol-3-yl)phenyl)-4-fluorobenzenesulfonamide]			
	≤ 1 µM	130 to 200%	COc1ccc(C2CC(c3ccc(NS(=O)(=O)c4ccc(C(F)(F)F)cc4)cc3)=NN2C(C)=O)cc1 (centres unmarked) [Compound 21A, N-(4-(1-Acetyl-5-(4-methoxyphenyl)-4,5-dihydro-1H-pyrazol-3-yl)phenyl)-4-(trifluoromethyl)benzenesulfonamide]	3 to 10 µM	10 to 20 µM	
	≤ 1 µM	≤ 130%	COc1ccc(S(=O)(=O)Nc2ccc(C3=NN(C(C)=O)C(c4ccc(F)cc4)C3)cc2)cc1 (centres unmarked) [Compound 45A]	3 to 10 µM	> 20 µM	
